According to patent US8202879B2, “Quinazoline derivatives having tyrosine kinase inhibitory activity” (Shionogi & Co., Ltd., priority 2005, dated 2012):
Like-named read-outs stand apart in the source and are kept apart here.

Key:
EGFR = target: T1, EGFR (Homo sapiens, UniProt P00533); experiment: Enzyme inhibitory activity on EGFR (time resolution fluorescence, biotinylated poly-Glu-Tyr substrate); assay type: biochemical
T1 construct: purchased Carna Biosciences, Inc; host or cells: insect cell expression system
T1 sequence (P00533 25-1210): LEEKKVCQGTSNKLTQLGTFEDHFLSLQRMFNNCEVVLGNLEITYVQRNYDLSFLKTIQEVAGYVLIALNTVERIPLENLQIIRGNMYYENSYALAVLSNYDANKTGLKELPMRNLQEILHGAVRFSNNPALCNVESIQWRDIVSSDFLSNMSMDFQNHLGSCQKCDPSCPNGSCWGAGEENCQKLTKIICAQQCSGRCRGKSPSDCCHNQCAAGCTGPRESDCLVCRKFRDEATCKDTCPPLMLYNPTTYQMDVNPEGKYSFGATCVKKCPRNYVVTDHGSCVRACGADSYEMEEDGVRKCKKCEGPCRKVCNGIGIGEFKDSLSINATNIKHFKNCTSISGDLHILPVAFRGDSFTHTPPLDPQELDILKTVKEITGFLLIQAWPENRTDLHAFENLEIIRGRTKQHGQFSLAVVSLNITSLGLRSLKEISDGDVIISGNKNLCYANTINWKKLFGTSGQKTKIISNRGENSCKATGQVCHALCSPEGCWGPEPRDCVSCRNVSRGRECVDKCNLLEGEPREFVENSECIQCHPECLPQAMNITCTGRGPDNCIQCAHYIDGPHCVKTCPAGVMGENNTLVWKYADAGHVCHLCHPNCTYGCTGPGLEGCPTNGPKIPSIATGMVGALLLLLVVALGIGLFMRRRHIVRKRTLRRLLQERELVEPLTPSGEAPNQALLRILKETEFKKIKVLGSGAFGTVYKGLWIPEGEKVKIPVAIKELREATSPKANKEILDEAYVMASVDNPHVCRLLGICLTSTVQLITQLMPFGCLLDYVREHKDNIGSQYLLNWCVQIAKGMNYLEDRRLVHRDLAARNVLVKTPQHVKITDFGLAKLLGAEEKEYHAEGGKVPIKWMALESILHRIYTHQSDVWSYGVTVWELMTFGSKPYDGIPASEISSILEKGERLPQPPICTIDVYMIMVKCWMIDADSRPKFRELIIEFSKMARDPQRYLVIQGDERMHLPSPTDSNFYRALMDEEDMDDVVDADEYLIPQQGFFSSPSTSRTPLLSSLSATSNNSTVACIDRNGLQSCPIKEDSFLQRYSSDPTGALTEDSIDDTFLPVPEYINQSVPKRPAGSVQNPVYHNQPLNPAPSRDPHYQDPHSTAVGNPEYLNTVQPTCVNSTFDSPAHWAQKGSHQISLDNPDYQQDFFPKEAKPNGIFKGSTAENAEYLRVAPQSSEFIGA
Method: (§1) Enzyme Inhibitory Activity of Test Compound on EGFR and HER2
(§2) EGFR and HER2 purified from an insect cell expression system, and a biotinylated substrate (synthetic peptide of glutamic acid:tyrosine=4:1) were added to a 384-well plate with ATP added thereto, and an enzyme reaction was performed at room temperature. After completion of the enzyme reaction, an anti-phosphorylated tyrosine antibody labeled with europium and streptavidin labeled with alphycocyanine were added, and a phosphorylated tyrosine residue was quantified by a time resolution fluorescence method.
(§3) A test compound was adjusted to 10 mM using DMSO.
(§4) Further, using 10% DMSO solution, a 1 mM solution was prepared, and this was regarded as a maximum concentration point.
(§5) As a dilution series, a 4-fold dilution series was prepared to a 10 stage.
(§6) As a buffer, TBS containing 10 mM MgCl2, 5 mM MnCl2, 0.2 mM Na3VO4, and 0.1% BSA was used.
(§7) As EGFR and HER2 enzymes, those purified from an insect cell expression system were purchased from Carna Biosciences, Inc.
An EGFR enzyme solution was adjusted to 250 ng/ml using a buffer.
(§8) As a substrate, biotinylated poly-Glu-Tyr (4:1, manufactured by CISbio) was used. A concentration was adjusted to 3.125 μg/ml using the above buffer.
An ATP concentration on study of the EGFR enzyme was adjusted to 125 μM using the buffer.
(§9) For preparing a detection reagent, TBS containing 30 mM EDTA, 0.8M KF and 0.1% BSA was used.
(§10) An anti-phosphorylated tyrosine antibody labeled with europium, PT-66K (CISbio) was adjusted to 195 ng/ml, and streptavidin labeled with alphycocyanine, SA-XL (CISbio) was adjusted to 5 μg/ml.
(§11) As an assay plate, a 384-well plate was used. Per one well, 1.1 μl of a test compound, 4 μl of a substrate solution, and 4 μl of an enzyme solution were added, and 2 μl of an ATP solution was added to initiate an enzyme reaction. The enzyme reaction was performed at room temperature for 60 minutes, and 10 μl of a detection reagent was added to complete the reaction. One hour after completion of the reaction, time resolution fluorescent measurement was performed.

HER2 = target: T2, HER2 (Homo sapiens, UniProt P04626); experiment: Enzyme inhibitory activity on HER2 (time resolution fluorescence, biotinylated poly-Glu-Tyr substrate); assay type: biochemical
T2 construct: purchased Carna Biosciences, Inc; host or cells: insect cell expression system
T2 sequence (P04626 23-1255): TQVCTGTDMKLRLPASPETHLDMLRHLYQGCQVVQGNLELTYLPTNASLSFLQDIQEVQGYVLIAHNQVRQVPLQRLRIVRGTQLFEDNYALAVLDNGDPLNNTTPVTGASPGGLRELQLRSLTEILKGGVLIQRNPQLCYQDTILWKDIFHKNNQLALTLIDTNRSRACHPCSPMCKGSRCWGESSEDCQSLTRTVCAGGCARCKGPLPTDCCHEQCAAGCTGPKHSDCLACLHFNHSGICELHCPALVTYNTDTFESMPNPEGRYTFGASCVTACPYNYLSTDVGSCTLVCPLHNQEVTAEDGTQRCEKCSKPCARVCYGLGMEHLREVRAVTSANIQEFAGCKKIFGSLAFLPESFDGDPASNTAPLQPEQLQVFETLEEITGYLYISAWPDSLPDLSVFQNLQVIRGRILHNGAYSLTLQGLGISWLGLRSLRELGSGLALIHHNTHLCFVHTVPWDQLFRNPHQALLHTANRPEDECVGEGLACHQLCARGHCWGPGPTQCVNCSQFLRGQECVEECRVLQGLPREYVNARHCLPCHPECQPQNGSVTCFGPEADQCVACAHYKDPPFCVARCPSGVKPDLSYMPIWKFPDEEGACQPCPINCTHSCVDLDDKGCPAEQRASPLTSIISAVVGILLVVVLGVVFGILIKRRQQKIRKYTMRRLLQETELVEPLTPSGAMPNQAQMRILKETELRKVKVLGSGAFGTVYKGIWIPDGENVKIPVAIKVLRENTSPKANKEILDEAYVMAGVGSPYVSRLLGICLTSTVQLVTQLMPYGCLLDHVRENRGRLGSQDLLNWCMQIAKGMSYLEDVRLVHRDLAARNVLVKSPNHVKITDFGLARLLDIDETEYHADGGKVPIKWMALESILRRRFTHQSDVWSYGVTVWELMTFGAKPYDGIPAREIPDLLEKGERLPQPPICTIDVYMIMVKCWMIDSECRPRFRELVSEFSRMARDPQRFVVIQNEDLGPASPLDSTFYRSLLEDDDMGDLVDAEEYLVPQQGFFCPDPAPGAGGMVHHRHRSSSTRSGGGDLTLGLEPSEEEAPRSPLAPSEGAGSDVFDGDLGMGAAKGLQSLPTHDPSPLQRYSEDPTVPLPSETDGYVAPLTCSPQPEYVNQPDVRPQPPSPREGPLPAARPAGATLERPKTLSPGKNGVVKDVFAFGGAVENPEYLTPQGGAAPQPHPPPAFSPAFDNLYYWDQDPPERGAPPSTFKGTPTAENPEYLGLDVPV
Method: as §1, §2, §3, §4, §5, §6, §7
HER2 kinase was adjusted to 1000 ng/ml using a buffer.
as §8
An ATP concentration on study of the HER2 enzyme was adjusted to 290 μM.
as §9, §10, §11

BT-474 = experiment: In vitro cell proliferation inhibition, WST assay; assay type: cell-based, human; settings: BT-474 cells, cultured for 3 days, read-out: BT-474 (nM) proliferation inhibitory activity (IC50 value)
Method: Test of In Vitro Cell Proliferation Inhibition of Test Compound
As a human-derived cancer cell strain, BT-474 was used. Cells were all cultured in a 37° C., 5% CO2 incubator in a medium in which 10% bovine fetal serum (ICN) and 50 units ml penicillin/60 μg/ml streptomycin solution (GIBCO) were added to Dulbecco's Modified Essential Medium (DMEM, Nacalai Tesque, Inc).

[1] = EGFR purified from insect cell expression system, ATP solution 125 μM, room temperature, 60 minutes
[2] = HER2 purified from insect cell expression system, ATP solution 290 μM, room temperature, 60 minutes
[3] = enzyme reaction at room temperature for 60 minutes

Compound	IC50 (EGFR; [1]) [nM]	IC50 (HER2; [2]) [nM]	IC50 (BT-474; Homo sapiens, BT-474, 72 h) [nM]	IC50 (EGFR; [3]) [nM]	IC50 (HER2; [3]) [nM]	IC50 (BT-474) [nM]
CC#C/C(=N\OCCNC[C@H](C)CO)c1ccc2ncnc(Nc3ccc(OCc4cccc(F)c4)c(Cl)c3)c2c1 [VIII-63]	9.6	9.2	13			
CC#C/C(=N\OCCNC1CCOCC1)c1ccc2ncnc(Nc3ccc(OCc4cccc(F)c4)c(Cl)c3)c2c1 [VIII-55]	19	68	25			
CC#C/C(=N\OC[C@H]1COCCN1)c1ccc2ncnc(Nc3ccc(OCc4ccccn4)c(Cl)c3)c2c1 [VIII-167]			21	4.8	4.2	
CC#C/C(=N\OC[C@H]1CNCCO1)c1ccc2ncnc(Nc3ccc(OCc4cccc(F)c4)c(Cl)c3)c2c1 [VIII-114]	57	69				37
C=CC(=O)N1CCN(CCON=Cc2ccc3ncnc(Nc4ccc(OCc5cccc(F)c5)c(Cl)c4)c3c2)CC1 [Compound V-43, 4-(3-chloro-4-(3-fluorobenzyloxy)phenylamino)-6-(2-(4-acryloyl-1-piperazin-1-yl)ethoxyimino)methylquinazoline]	186	151	71			
CC#C/C(=N\OCCN1C[C@@H](C)O[C@@H](C)C1)c1ccc2ncnc(Nc3ccc(OCc4cccc(F)c4)c(Cl)c3)c2c1 [VIII-93]	453	321	38			
CC#C/C(=N\OCCN1CCC(NC(C)=O)CC1)c1ccc2ncnc(Nc3ccc(OCc4cccc(F)c4)c(Cl)c3)c2c1 [VIII-99]	84	84	24			
CC#C/C(=N\OC[C@@H]1CCCN1)c1ccc2ncnc(Nc3ccc(OCc4cccc(F)c4)c(Cl)c3)c2c1 [VIII-72]	6.3	11				21
CC#C/C(=N\OCCNCCNC(C)=O)c1ccc2ncnc(Nc3ccc4c(cnn4Cc4cccc(F)c4)c3)c2c1 [VIII-184]			9	10	7	
CC#C/C(=N\OC[C@H]1CNC[C@H](C)O1)c1ccc2ncnc(Nc3ccc(OCc4cccc(F)c4)c(Cl)c3)c2c1 [VIII-117]	47	53				20
CC#C/C(=N\OCCCNC)c1ccc2ncnc(Nc3ccc(OCc4ccccn4)c(Cl)c3)c2c1 [VIII-147]			25	13	13	
CC#C/C(=N\OC[C@H]1CNCCN1)c1ccc2ncnc(Nc3ccc(OCc4cccc(F)c4)c(Cl)c3)c2c1 [VIII-105]	14	14				10
CC/C(=N\OCCN1CCOCC1)c1ccc2ncnc(Nc3ccc(OCc4cccc(F)c4)c(Cl)c3)c2c1 [VIII-7]	103	348	63			
CC#C/C(=N\OCCNCCN(C)S(C)(=O)=O)c1ccc2ncnc(Nc3ccc4c(cnn4Cc4cccc(F)c4)c3)c2c1 [VIII-186]			29	19	26	
OCC#C/C(=N\OCCN1CCCC1)c1ccc2ncnc(Nc3ccc(OCc4cccc(F)c4)c(Cl)c3)c2c1 [VIII-122]	29	24	14			
CC#C/C(=N\OC[C@@H](N)CO)c1ccc2ncnc(Nc3ccc(OCc4cccc(F)c4)c(Cl)c3)c2c1 [VIII-41]	12	15				14
CC#C/C(=N\OCCN1CC[C@@H](NC(C)=O)C1)c1ccc2ncnc(Nc3ccc(OCc4ccccn4)c(Cl)c3)c2c1 [VIII-149]			28	13	14	
CC#C/C(=N\OCCNCCNS(C)(=O)=O)c1ccc2ncnc(Nc3ccc(OCc4cccc(F)c4)c(Cl)c3)c2c1 [VIII-51]	45	64	9			
CC#C/C(=N\OCCNC[C@@H]1CCCO1)c1ccc2ncnc(Nc3ccc(OCc4cccc(F)c4)c(Cl)c3)c2c1 [VIII-49]	28	31				28
CNCCO/N=C(\C#CCOC)c1ccc2ncnc(Nc3ccc(OCc4cccc(F)c4)c(Cl)c3)c2c1 [VIII-123]				24	38	31

Compound	IC50 (EGFR; [1]) [nM]	IC50 (HER2; [2]) [nM]	IC50 (BT-474; Homo sapiens, BT-474, 72 h) [nM]	IC50 (EGFR; [3]) [nM]	IC50 (HER2; [3]) [nM]	IC50 (BT-474) [nM]
CC#C/C(=N\OCCNCCOC(N)=O)c1ccc2ncnc(Nc3ccc(OCc4ccccn4)c(Cl)c3)c2c1 [VIII-135]			28	7.6	8.1	
CC#C/C(=N\OC[C@H]1CS(=O)(=O)CCN1)c1ccc2ncnc(Nc3ccc(OCc4cccc(F)c4)c(Cl)c3)c2c1 [VIII-118]	197	223				22
CN(/N=C/c1ccc2ncnc(Nc3ccc(OCc4cccc(F)c4)c(Cl)c3)c2c1)c1ccccc1 [IX-8]				426	549	
CC#C/C(=N\OCCNCCOC(N)=O)c1ccc2ncnc(Nc3ccc4c(cnn4Cc4cccc(F)c4)c3)c2c1 [VIII-187]			24	10	9	
CC#C/C(=N\OC[C@H]1CNCC(=O)N1)c1ccc2ncnc(Nc3ccc(OCc4cccc(F)c4)c(Cl)c3)c2c1 [VIII-111]	37	55				15
CC#C/C(=N\OC[C@@H]1C[C@@H](NC(C)=O)CN1)c1ccc2ncnc(Nc3ccc(OCc4cccc(F)c4)c(Cl)c3)c2c1 [VIII-84]	44	47				28
CC#C/C(=N\OCCNC(C)COC)c1ccc2ncnc(Nc3ccc(OCc4cccc(F)c4)c(Cl)c3)c2c1 (stereo not shown) [VIII-44]	26	6.3				28
CC#C/C(=N\OC[C@@H]1CNC[C@H](C)O1)c1ccc2ncnc(Nc3ccc(OCc4cccc(F)c4)c(Cl)c3)c2c1 [VIII-109]	23	18	40			
CNCCO/N=C(\C#CCOC)c1ccc2ncnc(Nc3ccc4c(cnn4Cc4cccc(F)c4)c3)c2c1 [VIII-199]			33	6.3	5.2	
CC#C/C(=N\OCCN1CCC[C@@H]1CO)c1ccc2ncnc(Nc3ccc(OCc4ccccn4)c(Cl)c3)c2c1 [VIII-150]			30	12	11	
CC#C/C(=N\OCCNC[C@@H]1CCCO1)c1ccc2ncnc(Nc3ccc4c(cnn4Cc4cccc(F)c4)c3)c2c1 [VIII-189]			25	17	27	
CC#C/C(=N\OC[C@@H]1NCCO[C@H]1C)c1ccc2ncnc(Nc3ccc(OCc4cccc(F)c4)c(Cl)c3)c2c1 [VIII-106]	160	148	16			
CC#C/C(=N\OCCNC1CCCCC1)c1ccc2ncnc(Nc3ccc(OCc4cccc(F)c4)c(Cl)c3)c2c1 [VIII-28]	162	167				72
CC#C/C(=N\OC[C@H]1CCCN1CCO)c1ccc2ncnc(Nc3ccc(OCc4ccccn4)c(Cl)c3)c2c1 [VIII-159]			15	16	19	
CC#C/C(=N\OC[C@@H]1C[C@H](O)CN1)c1ccc2ncnc(Nc3ccc4c(cnn4Cc4cccc(F)c4)c3)c2c1 [VIII-200]						8
COC[C@@H]1CCCN1/N=C/c1ccc2ncnc(Nc3ccc(OCc4cccc(F)c4)c(Cl)c3)c2c1 [IX-6]				344	326	
Fc1cccc(COc2ccc(Nc3ncnc4ccc(C=NN5CCCC5)cc34)cc2Cl)c1 [IX-1, 4-(3-chloro-4-(3-fluorobenzyloxy)phenylamino)-6-(pyrrolidin-1-yliminomethyl)quinazoline]				138	203	
Fc1cccc(COc2ccc(Nc3ncnc4ccc(/C=N/N5CCCCC5)cc34)cc2Cl)c1 [IX-4]				193	334	
CC#C/C(=N\OCCN(C)CCOC)c1ccc2ncnc(Nc3ccc(OCc4cccc(F)c4)c(Cl)c3)c2c1 [VIII-64]	52		22			
CC/C(=N\OCCNCCS(C)(=O)=O)c1ccc2ncnc(Nc3ccc(OCc4cccc(F)c4)c(Cl)c3)c2c1 [VIII-19]	89	115				
